Measurements as given in patent US20040266742A1, “Combination therapy of an sodm and a corticosteroid for prevention and/or treatment of inflammatory disease” (priority 2001, published 2004).
Entries after “also recorded” stand apart in the source; their conditions may differ.

Experiments:
[1] = test system: carrageenan-induced paw edema; assay: Carrageenan-induced paw edema in rats; assay type: in vivo, sprague dawley rats
Method: Dexamethasone was given by lavage one hour before carrageenan. […] (1 mg/kg) was given intravenously 15 minutes before carrageenan. Male sprague dawley rats weighing between 200 and 210 g were used. Paw edema was monitored for 6 hours. Results express delta change from basal. Each number is the mean+s.e.m. for n=4 rats per group.

[2] = cited from earlier work
iNOS = iNOS immunostaining in paw/joint of collagen-induced arthritis rats; assay type: in vivo, Lewis rats; conditions: day 35; low doses alone: DEX 0.01 mg/kg or M40403 2 mg/kg
Method: (§1) Immunohistochemical Localization of Nitrotyrosine, PARS, COX-2 and iNOS At day 35, the joints organs were then trimmed, placed in decalcifying solution for 24 hours and 8 μm sections were prepared from paraffin embedded tissues. After deparaffinization, endogenous peroxidase was quenched with 0.3% H2O2 in 60% methanol for 30 minutes. The sections were permeabilized with 0.1% Triton X-100 in PBS for 20 minutes. Non-specific adsorption was minimized by incubating the section in 2% normal goat serum in phosphate buffered saline for 20 minutes. Endogenous biotin or avidin binding sites were blocked by sequential incubation for 15 minutes with avidin and biotin. Sections were incubated overnight with 1) anti-rabbit polyclonal antibody directed at iNOS (1:1000 in PBS, v/v) (DBA, Milan, Italy) or 2) with anti-COX-2 goat policlonal antibody (1:500 in PBS, v/v) or 3) with anti-nitrotyrosine rabbit policlonal antibody (1:1000 in PBS, v/v) or 4) with anti-poly (ADP-Ribose) goat policlonal antibody rat (1:500 in PBS, v/v). Controls included buffer alone or non-specific purified rabbit IgG. Specific labelling was detected with a biotin-conjugated goat anti-rabbit IgG (for nitrotyrosine and iNOS) or with a biotin-conjugated […] and avidin-biotin peroxidase complex. […]

nitrotyrosine = assay: Nitrotyrosine immunostaining in paw/joint of collagen-induced arthritis rats; assay type: in vivo, Lewis rats; conditions: day 35; low doses alone: DEX 0.01 mg/kg or M40403 2 mg/kg
Method: as §1

[3] = Body weight gain in collagen-induced arthritis rats; assay type: in vivo, Lewis rats; conditions: day 25 to 35; low doses alone: DEX 0.01 mg/kg or M40403 2 mg/kg
Excerpt: Animals were randomly divided into six groups (n=10 for each group) as follows: […]

COX-2 = COX-2 immunostaining in paw/joint of collagen-induced arthritis rats; assay type: in vivo, Lewis rats; conditions: day 35; low doses alone: DEX 0.01 mg/kg or M40403 2 mg/kg
Method: as §1

PARS = PARS immunostaining in paw/joint of collagen-induced arthritis rats; assay type: in vivo, Lewis rats; conditions: day 35; low doses alone: DEX 0.01 mg/kg or M40403 2 mg/kg
Method: as §1

[4] = relative potency; cited from earlier work
[5] = relative potency; cited from earlier work; remark: listed apart in the source

Compound | Duration (T½, Hours) [2] | Na+-retaining Potency [4] | Anti-inflammatory Potency [5] | also measured
5,10,15,20-tetrakis (2,4,6-trimethyl-3,5-disulfonatophenyl)-porphyrinato iron (III) [FeTMPS] | – | – | – | Paw edema, delta change from basal ([1]; FeTMPS 1 mpk intravenously 15 minutes before carrageenan, 0 h post carrageenan): 0; Paw edema, delta change from basal ([1]; FeTMPS 1 mpk, 1 h post carrageenan): 0.6 ± 0.02; Paw edema, delta change from basal ([1]; FeTMPS 1 mpk, 2 h post carrageenan): 0.9 ± 0.05; Paw edema, delta change from basal ([1]; FeTMPS 1 mpk, 3 h post carrageenan): 1.1 ± 0.01; Paw edema, delta change from basal ([1]; FeTMPS 1 mpk, 4 h post carrageenan): 1.2 ± 0.02; Paw edema, delta change from basal ([1]; FeTMPS 1 mpk, 5 h post carrageenan): 1 ± 0.03; Paw edema, delta change from basal ([1]; FeTMPS 1 mpk, 6 h post carrageenan): 1.3 ± 0.02
C[C@]12CCC(=O)C=C1CC[C@H]1[C@@H]3CC[C@](O)(C(=O)CO)[C@@]3(C)C[C@H](O)[C@@]12F [Fludrocortisone] | 8 to 12 h | – | – | –
[Cl-].[Cl-].[Mn+2].c1cc2nc(c1)CN[C@@H]1CCCC[C@H]1NCCN[C@@H]1CCCC[C@H]1NC2 [M40403] | – | – | – | iNOS immunostaining in joint (iNOS): had no effect on iNOS or COX-2 staining; Nitrotyrosine immunostaining in joint (nitrotyrosine): No significant protective effect; Body weight gain [3]: gained weight in a manner that was similar to CIA rats; also recorded: gained significantly less weight than the normal rats; COX-2 immunostaining in joint (COX-2): had no effect on iNOS or COX-2 staining; PARS immunostaining in joint (PARS): No significant protective effect
C[C@]12C=CC(=O)C=C1CC[C@@H]1[C@@H]2[C@@H](O)C[C@@]2(C)[C@H]1CC[C@]2(O)C(=O)CO [Prednisolone] | 12 to 36 h | 0.8 | 4 | –
C[C@]12C=CC(=O)C=C1CC[C@@H]1[C@@H]2C(=O)C[C@@]2(C)[C@H]1CC[C@]2(O)C(=O)CO [Prednisone] | 12 to 36 h | – | – | –
C[C@H]1C[C@@H]2[C@H]([C@@H](O)C[C@@]3(C)[C@H]2CC[C@]3(O)C(=O)CO)[C@@]2(C)C=CC(=O)C=C12 [6a-Methyl-prednisolone] | 12 to 36 h | 0.5 | 5 | –
C[C@]12CCC(=O)C=C1CC[C@@H]1[C@@H]2C(=O)C[C@@]2(C)[C@H]1CC[C@]2(O)C(=O)CO [Cortisone] | – | 0.8 | 0.8 | –
C[C@]12CCC(=O)C=C1CC[C@@H]1[C@@H]2[C@@H](O)C[C@@]2(C)[C@H]1CC[C@]2(O)C(=O)CO [Cortisol] | 8 to 12 h | 1 | 1 | –
C[C@]12C=CC(=O)C=C1CC[C@H]1[C@@H]3C[C@@H](O)[C@](O)(C(=O)CO)[C@@]3(C)C[C@H](O)[C@@]12F [Triamcinolone] | 12 to 36 h | 0 | 5 | –
